We go through 2 compounds from patent publication US11225645B2 (priority 2002, dated 2022).

Entries after “also recorded” stand apart in the source; their conditions may differ.

The test system of experiment [1] is coenzyme-binding glucose dehydrogenase. Briefly: Inhibitor test, additives added to Enzymatic activity measurement method 1. It is filed as biochemical, Aspergillus terreus.
Experiment [2] deals with glucose dehydrogenase whose coenzyme is a flavin adenine dinucleotide of Aspergillus oryzae. To be noted: cited from earlier work.
The target of experiment [3] is glucose dehydrogenase whose coenzyme is the pyrroloquinolinequinone derived from Escherichia coli (Escherichia coli, UniProt P15877). To be noted: relative to glucose = 100%; cited from earlier work.
Chain of glucose dehydrogenase whose coenzyme is the pyrroloquinolinequinone derived from Escherichia coli (P15877 whole entry): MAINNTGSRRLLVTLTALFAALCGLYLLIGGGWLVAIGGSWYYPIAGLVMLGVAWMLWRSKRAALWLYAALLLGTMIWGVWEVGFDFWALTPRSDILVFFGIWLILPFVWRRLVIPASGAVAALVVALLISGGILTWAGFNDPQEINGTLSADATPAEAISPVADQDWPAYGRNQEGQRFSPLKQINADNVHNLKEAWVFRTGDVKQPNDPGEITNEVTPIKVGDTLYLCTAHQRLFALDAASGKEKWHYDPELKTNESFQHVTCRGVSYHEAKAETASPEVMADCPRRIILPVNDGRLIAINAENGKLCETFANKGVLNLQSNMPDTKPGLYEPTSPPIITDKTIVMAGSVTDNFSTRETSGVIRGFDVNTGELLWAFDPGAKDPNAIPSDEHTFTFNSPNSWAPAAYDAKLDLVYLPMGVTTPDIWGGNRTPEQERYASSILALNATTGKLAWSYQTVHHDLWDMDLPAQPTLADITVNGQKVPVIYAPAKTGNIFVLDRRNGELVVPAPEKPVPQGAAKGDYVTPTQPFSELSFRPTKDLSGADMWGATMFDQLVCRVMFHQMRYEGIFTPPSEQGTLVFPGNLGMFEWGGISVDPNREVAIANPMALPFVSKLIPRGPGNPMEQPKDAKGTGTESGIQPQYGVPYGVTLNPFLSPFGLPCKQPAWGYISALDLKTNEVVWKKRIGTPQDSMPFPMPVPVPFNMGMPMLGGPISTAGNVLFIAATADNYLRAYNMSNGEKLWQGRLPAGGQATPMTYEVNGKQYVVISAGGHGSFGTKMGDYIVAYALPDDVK
The subject of experiment [4] is coenzyme-binding glucose dehydrogenase. As to the kind of experiment: Substrate specificity and Km value, Enzymatic activity measurement method 1. It counts as biochemical, Aspergillus terreus. As to the method: Employing each of D-glucose and other substrates (each at 333 mM as a final concentration, except for D-cellobiose at 193 mM, D-trehalose and D-raffinose at 121 mM), the enzymatic activity of this enzyme was measured by the Enzymatic activity measurement method 1. The activity on each substrate is represented as a relative value to the activity of this enzyme on D-glucose being regarded as 100%, and shown in Table 1.
Similarly, the relative reactivities (enzymatic activity) on D-glucose and maltose each at two final concentrations, i.e. 550 mM and 100 mM, were measured. The results are represented as relative values based on the value on D-glucose.

Experiment [5] addresses glucose dehydrogenase whose coenzyme is the pyrroloquinolinequinone derived from Gluconobacter suboxydans (Gluconobacter oxydans, UniProt P27175). The settings on record: relative to glucose = 100%; cited from earlier work.
For experiment [6], the system named is glucose dehydrogenase whose coenzyme is the pyrroloquinolinequinone derived from Pseudomonas sp. To be noted: relative to glucose = 100%; cited from earlier work.

Chain of glucose dehydrogenase whose coenzyme is the pyrroloquinolinequinone derived from Gluconobacter suboxydans (P27175 34-808): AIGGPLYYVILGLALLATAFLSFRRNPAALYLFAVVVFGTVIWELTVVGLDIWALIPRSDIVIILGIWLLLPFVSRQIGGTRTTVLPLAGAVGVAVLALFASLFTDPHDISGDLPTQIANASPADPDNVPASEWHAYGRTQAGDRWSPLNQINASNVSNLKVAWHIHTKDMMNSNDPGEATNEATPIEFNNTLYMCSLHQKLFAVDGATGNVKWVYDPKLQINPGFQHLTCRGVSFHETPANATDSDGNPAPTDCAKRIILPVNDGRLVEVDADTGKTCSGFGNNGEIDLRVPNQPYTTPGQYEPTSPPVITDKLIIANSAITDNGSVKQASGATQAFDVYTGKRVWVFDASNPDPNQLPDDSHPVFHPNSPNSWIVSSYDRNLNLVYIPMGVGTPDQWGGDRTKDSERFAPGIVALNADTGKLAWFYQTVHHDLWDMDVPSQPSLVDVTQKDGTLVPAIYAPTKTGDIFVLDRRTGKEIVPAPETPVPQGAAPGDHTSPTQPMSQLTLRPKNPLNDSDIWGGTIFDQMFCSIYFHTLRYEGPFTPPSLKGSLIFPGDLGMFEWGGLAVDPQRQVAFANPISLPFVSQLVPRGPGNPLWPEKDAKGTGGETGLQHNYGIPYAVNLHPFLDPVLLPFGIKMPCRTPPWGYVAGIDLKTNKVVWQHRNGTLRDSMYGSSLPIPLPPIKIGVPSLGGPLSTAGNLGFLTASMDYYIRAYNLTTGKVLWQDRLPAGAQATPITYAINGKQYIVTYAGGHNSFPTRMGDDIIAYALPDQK

`c1cnc2c(c1)ccc1cccnc12` [1,10-Phenanthroline] registered an Inhibitory effect in experiment [1] (1 mM final concentration, methanol 10% (v/v)) of 62.0%. The “Inhibit (%)” value is 76% in experiment [1] (5 mM final concentration, methanol 10% (v/v)); 85% in experiment [1] (10 mM final concentration, methanol 10% (v/v)); 91% in experiment [1] (25 mM final concentration, methanol 10% (v/v)); 95% in experiment [1] (50 mM final concentration, methanol 10% (v/v)). Besides, in experiment [1] (additive 1 mM final concentration), the “Inhibition (%)” value is given as 62.0%. Moreover, the “Inhibition (in words)” value in experiment [2] is listed as “not inhibited”.
Consider `OC[C@H]1O[C@H](O[C@H]2[C@H](O)[C@@H](O)[C@H](O)O[C@@H]2CO)[C@H](O)[C@@H](O)[C@@H]1O` [Maltose], for which the Activity on maltose in experiment [3] is listed as 3%; in experiment [5] it was 5%; in experiment [6], 3.2%. The “Relative activity (%)” value in experiment [4] (substrate 333 mM final, activity on D-glucose = 100%) turned out to be 1.4%; in experiment [4] (substrate final conc. 100 mM, D-glucose = 100%) it was 0.5%; in experiment [4] (substrate final conc. 550 mM, D-glucose = 100%) it was 2.8%. The “Activity of the enzyme on the substrate (in words)” value in experiment [4] (summary of Tables 1 and 2) is “lower activity; also recorded: weakly”.
